Consider 3 molecules from US4921863A, “Cyclic amine derivatives” (Eisai Co., Ltd., priority 1988, dated 1990).

This assay concerns learning disorder after ischemia. The assay can be described thus: Effect of remedying learning disorder after ischemia (passive avoidance method). The format is in vivo, Mongolian gerbils. The following applies: p.o.; for Latent time (average ± S.E.): 1 h before 5-min ischemia, upper limit 300 sec, normal 246.5, control 71.5 sec; for Recovery ratio: normal = 100, control = 0. On the procedure: Common carotid arteries on both sides of Mongolian gerbils (17 to 21 weeks old) were clipped with Skoville clamps without anesthesia and the clamps were removed after 5 min to realize a short period of ischemia. Twenty-four hours after the removal of the clamps, these animals were subjected to learning and memory tests were conducted after an additional 24 h. The learning and memory functions were examined by the passive avoidance method with a modification of a device reported by Jarvik and Kopp in "Psychological Reports", 21, 221 to 224 (1967). The device had two chambers, […] chamber A and a dark chamber B. In the tests, the animals were placed in the well-lighted chamber A and an electric current (A.C., 1.6 mA) was applied to a grid on the floor of the dark chamber B for 5 min when they entered the chamber B. On the next day, the animals subjected to the learning were placed in the chamber A and the time (latent time) which had elapsed before they entered the chamber B was measured. The upper limit of the latent time was set at 300 sec. The compound was administered in the form of a 5% suspension in acacia orally one hour before causing the ischemia. A 5% acacia solution was administered to the control group.

Molecules are shown by their SMILES.

On to `Cl.O=C(CN1CCC(C(=O)c2ccc(F)cc2)CC1)c1ccc2ccccc2c1` [Example 12, 2-[4-(p-Fluorobenzoyl)-1-piperidinyl]-2'-acetonaphthone hydrochloride], for which the “Latent time (average ± S.E.)” value was determined as 168.8 ± 23.0 s (3 mg/kg), 196.8 ± 22.3 s (10 mg/kg) and 196.3 ± 37.0 s (30 mg/kg). In addition, the Recovery ratio (3 mg/kg) came to 56%, the Recovery ratio (10 mg/kg) amounted to 72% and the Recovery ratio (30 mg/kg) is listed as 71%.

For the molecule `c1ccc(CC2CCN(CCc3ccc4ccccc4c3)CC2)cc1` [Example 73], for the setting “10 mg/kg”, the “Latent time (average ± S.E.)” value worked out at 193.1 ± 35.3 s and the Recovery ratio is recorded as 69%. Besides, where the note is “30 mg/kg”, the “Latent time (average ± S.E.)” value was 80.1 ± 28.2 s and the Recovery ratio came out at 5%.

As for `O=C(CN1CCC(=Cc2ccc(F)cc2)CC1)c1ccc2ccccc2c1` [Example 74], the “Latent time (average ± S.E.)” value was 110.2 ± 29.0 s (3 mg/kg), 123.2 ± 24.3 s (10 mg/kg) and 129.2 ± 23.8 s (30 mg/kg). Besides, the Recovery ratio by setting is: (3 mg/kg) 22%; (10 mg/kg) 30%; (30 mg/kg) 33%.
